Experimental data from PubChem BioAssay AID1963832 (Molecular Pharmacology Branch, DTP, NCI, 2024).
Where “and” joins values, the source holds several entries; their conditions need not be identical. Equal entries are not always repeated.

Test system: 885724-159-R-J1-PDC complex spheroid viability
Assay: Anticancer human tumor 885724-159-R-J1-PDC patient-derived pancreatic adenocarcinoma cell line growth inhibition [POLQ]
Conditions: for viability, T/C: stronger effect = lower value
Method: Multicellular complex tumor spheroid response to Polymerase (POL) inhibitors (novobiocin, ART-558, RP6685) in combination with a variety of drugs and investigational agents in selected tumor cell lines
The POL inhibitors (novobiocin, ART-558, and RP6685) were evaluated both individually and in combination with standard of care and investigational anticancer small molecules within a complex spheroid model of solid tumors. . Complex spheroids include a stromal component modeled by human endothelial cells (HUVEC) and fibroblasts modeled by human mesenchymal stem cells (MSCs). The concentration ranges selected for each drug and investigational agent were based upon clinically achievable concentrations if the clinical Cmax of the agent was known.
Compounds. The drugs and investigational agents: novobiocin (NSC847541), ART-558 (NSC835418), RP-6685 (NSC848927), peposertib (NSC802822), ceralasertib (NSC780249), elimusertib (NSC800525), camonsertib (NSC841442), AZD-1390 (NSC803789), olaparib (NSC753686), talazoparib (NSC767125), rucaparib (NSC756644), sotorasib (NSC818433), MRTX-1133 (NSC836407), SN-38 (NSC673596), topotecan (NSC609699), epotoside (NSC141540), doxorubicin (NSC123127), gemcitabine (NSC613327), 5-fluorouracil (NSC19893), paclitaxel (NSC125973), vemurafenib (NSC761431), MSA-2 (NSC828583), SN-011 (NSC837082), adavosertib (NSC754352), prexasertib (NSC758257), carboplatin (NSC241240) and oxaliplatin (NSC266046), were obtained from the National Cancer Institute (NCI) Developmental Therapeutics Program Chemical Repository (21). The FDA-approved anticancer drug set is available from the Developmental Therapeutics Program at https://dtp.cancer.gov/organization/dscb/obtaining/. […] The stock solutions were prepared in dimethyl sulfoxide (DMSO, Sigma-Aldrich, St. Louis, MO, cat. D2650), except for the platinum compounds which were prepared in saline (Quality Biological, Gaithersburg, MD, cat. 114-055-101), at 800-fold the tested concentration and stored at -70 degrees C prior to their use. All drugs and investigational agents were tested over a range starting from a high concentration at or near the clinical Cmax and decreasing in half-log increments. If the clinical Cmax for an agent had not been determined, the highest concentration tested was 10 microM, except for SN-38, which was tested at a high concentration of 1 microM.
Cell Culture. All cells were maintained in an incubator at 37 degrees C and 5% CO2 with 95% humidity. The PDC lines were cultured according to standard operating procedures established by the NCI PDMR (https://pdmr.cancer.gov). Table 3 of the manuscript, lists the cell lines along with the number of the three cell types plated to form the mct-spheroids and media for tumor cell growth. After thawing, all PDC lines, except 997537-175-T-J1-PDC and 415267-285-R-J2-PDC, were cultured in Matrigel-coated flasks prepared with a working solution of 1X Ham's F-12 nutrient mix, without supplementation (Thermo Fisher Scientific, cat. 11765054), 100 U/mL penicillin-streptomycin (Thermo Fisher Scientific, cat. 15140122), and 2.5% Matrigel (Corning Inc., Corning, NY, cat. 354248) for the first three passages. The two PDC lines 997537-175-T-J1-PDC and 415267-285-R-J2-PDC were cultured on uncoated flasks. The 857933-349-R-J2-PDC line was cultured in 6C/Colon 1B media containing advanced DMEM/F-12 (Thermo Fisher Scientific, cat. 12634028), 10 mM HEPES (Thermo Fisher Scientific, cat. 15630080), 1X GlutaMAX supplement (Thermo Fisher Scientific, cat. 35050061), 0.1 mg/mL primocin (InvivoGen, San Diego, CA, cat. ant-pm-2), 10% defined fetal bovine serum, heat inactivated (HyClone Laboratories Inc., Logan, UT, cat. SH30070.03HI), 50% L-WRN conditioned media (ATCC, cat. CRL-3276), 1.25 mM N-Acetyl-L-cysteine (Sigma-Aldrich, cat. A9165), 10 mM nicotinamide (Sigma-Aldrich, cat. N0636), 1X B-27 supplement (Thermo Fisher Scientific, cat. 17504044), 1X N-2 supplement (Thermo Fisher Scientific, cat. […]

[1] = compound alone, run of 11/27/2023
[2] = compound alone, run of 12/05/2023
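Note: spheroids exposed to compounds for 7 days.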

CNCc1ccc(-c2[nH]c3cc(F)cc4c3c2CCNC4=O)cc1
viability, T/C (compound 0.0316 µM): 109% and 96.8% and 102%
viability, T/C (compound 0.1 µM): 102% and 92.6% and 112%
viability, T/C (compound 0.316 µM): 88.9% and 91.8% and 107%
viability, T/C (compound 1 µM): 87.8% and 98.4% and 99.9%
viability, T/C (compound 3.16 µM): 89.9% and 93.1% and 107%
viability, T/C (compound 10 µM): 93% and 91% and 83.8%
IC50 (curve of compound): > 10 µM

COC1C(OC(N)=O)C(O)C(Oc2ccc3c(O)c(NC(=O)c4ccc(O)c(CC=C(C)C)c4)c(=O)oc3c2C)OC1(C)C (stereo not drawn)
viability, T/C (compound 0.0316 µM): 94.1% [middle of 13 runs]
viability, T/C (compound 0.1 µM): 95.9% [middle of 13 runs]
viability, T/C (compound 0.316 µM): 98.5% [middle of 13 runs]
viability, T/C (compound 1 µM): 98.8% [middle of 12 runs]
viability, T/C (compound 3.16 µM): 98.5% [middle of 13 runs]
viability, T/C (compound 10 µM): 106% [middle of 13 runs]
IC50 [1]: > 10 µM

COc1cc(C2c3cc4c(cc3C(OC3OC5COC(C)OC5C(O)C3O)C3COC(=O)C23)OCO4)cc(OC)c1O (stereo not drawn)
viability, T/C (compound 0.0316 µM): 94.8% and 95.3% and 106%
viability, T/C (compound 0.1 µM): 86.5% and 92.2% and 82.3%
viability, T/C (compound 0.316 µM): 75.8% and 85.9% and 68.5%
viability, T/C (compound 1 µM): 64.5% (2×) and 73%
viability, T/C (compound 3.16 µM): 58.4% and 57.7% and 55.9%
viability, T/C (compound 10 µM): 48% and 53.2% and 42.6%
IC50 (curve of compound): 8.15 µM and > 10 µM and 4.59 µM

COc1cc2cc(C(=O)CCC(=O)O)sc2cc1OC
viability, T/C (compound 0.0316 µM): 102% and 90.8% and 94.2%
viability, T/C (compound 0.1 µM): 96.9% and 97.3% and 92%
viability, T/C (compound 0.316 µM): 98.9% and 97.8% and 108%
viability, T/C (compound 1 µM): 96.4% and 105% and 95.9%
viability, T/C (compound 3.16 µM): 103% and 99% and 107%
viability, T/C (compound 10 µM): 94.9% and 89% and 90.3%
IC50 (curve of compound): > 10 µM

COc1ccc([C@@H](O)c2cc(-c3ncnc4cc(N5CCOCC5)ccc34)c(F)cc2Cl)nn1
viability, T/C (compound 0.0316 µM): 94% and 96% and 96.8%
viability, T/C (compound 0.1 µM): 79.5% and 83.5% and 87.4%
viability, T/C (compound 0.316 µM): 86.8% and 78% and 76%
viability, T/C (compound 1 µM): 71.7% and 68.9% and 70.9%
viability, T/C (compound 3.16 µM): 59% and 58.1% and 55%
viability, T/C (compound 10 µM): 35.5% and 33% and 38.2%
IC50 (curve of compound): 4.86 µM and 4.08 µM and 4.45 µM

COc1cccc(OCCCN)c1-c1cc(Nc2cnc(C#N)cn2)n[nH]1
viability, T/C (compound 0.00316 µM): 62.5% and 76.4% and 69.2%
viability, T/C (compound 0.01 µM): 46.4% and 49.5% and 54.3%
viability, T/C (compound 0.0316 µM): 45.3% and 44.2% and 49.7%
viability, T/C (compound 0.1 µM): 42.2% and 45.4% and 51.1%
viability, T/C (compound 0.316 µM): 44.9% and 42.6% and 47%
viability, T/C (compound 1 µM): 44.4% and 47.1% and 48%
IC50 (curve of compound): 0.00782 µM and 0.00969 µM and 0.0326 µM

COc1cccc2c1C(=O)c1c(O)c3c(c(O)c1C2=O)CC(O)(C(=O)CO)CC3OC1CC(N)C(O)C(C)O1 (stereo not drawn)
viability, T/C (compound 0.0316 µM): 72.9% and 74.1% and 66.6%
viability, T/C (compound 0.1 µM): 54.6% and 56% and 97.5%
viability, T/C (compound 0.316 µM): 30.8% and 36.2% and 31.9%
viability, T/C (compound 1 µM): 11.2% and 13.3% and 8.99%
viability, T/C (compound 3.16 µM): 5.6% and 5.49% and 5.32%
viability, T/C (compound 10 µM): 7.5% and 6.14% and 6.82%
IC50 (curve of compound): 0.128 µM and 0.146 µM and 0.209 µM

Cc1cccc(N(C)C(=O)C2C(O)CCN2c2nc(C)cc(C(F)(F)F)c2C#N)c1 (stereo not drawn)
viability, T/C (compound 0.0316 µM): 96.2% [middle of 13 runs]
viability, T/C (compound 0.1 µM): 97.6% [middle of 13 runs]
viability, T/C (compound 0.316 µM): 102% [middle of 13 runs]
viability, T/C (compound 1 µM): 100% [middle of 13 runs]
viability, T/C (compound 3.16 µM): 99.2% [middle of 13 runs]
IC50 [1]: > 10 µM
IC50 [2]: > 10 µM

Cn1ncnc1[C@H]1c2n[nH]c(=O)c3cc(F)cc(c23)N[C@@H]1c1ccc(F)cc1
viability, T/C (compound 0.000316 µM): 96.8% and 84.9% and 99.5%
viability, T/C (compound 0.001 µM): 94.3% and 95.2% and 99.7%
viability, T/C (compound 0.00316 µM): 91.6% and 90.1% and 98.2%
viability, T/C (compound 0.01 µM): 103% and 94.9% and 99.3%
viability, T/C (compound 0.0316 µM): 97.7% and 93.4% and 103%
viability, T/C (compound 0.1 µM): 83.7% and 84.4% and 85.2%
IC50 (curve of compound): > 0.1 µM

Nc1ccc(C#CCN(C(=O)Cc2ncc(C(F)(F)F)cc2C(F)(F)F)c2ccc(F)cc2)nn1
viability, T/C (compound 0.0316 µM): 94.8% [middle of 13 runs]
viability, T/C (compound 0.1 µM): 93.2% [middle of 13 runs]
viability, T/C (compound 0.316 µM): 97% [middle of 13 runs]
viability, T/C (compound 1 µM): 96.2% [middle of 13 runs]
viability, T/C (compound 3.16 µM): 97.6% [middle of 13 runs]
viability, T/C (compound 10 µM): 105% [middle of 12 runs]
IC50 [2]: > 10 µM

Nc1ccn(C2OC(CO)C(O)C2(F)F)c(=O)n1 (stereo not drawn)
viability, T/C (compound 0.0316 µM): 62.8% and 66.8% and 60.1%
viability, T/C (compound 0.1 µM): 51.6% and 57% and 53.9%
viability, T/C (compound 0.316 µM): 50.6% and 51% and 51.5%
viability, T/C (compound 1 µM): 51.7% and 53% (2×)
viability, T/C (compound 3.16 µM): 51.6% and 53.4% and 54.6%
viability, T/C (compound 10 µM): 46% and 42.3% and 39.7%
IC50 (curve of compound): 0.56 µM and 1.16 µM and 4.38 µM

O=C(Nc1ccc(O)c(NS(=O)(=O)c2ccc(F)cc2)c1)c1ccc(-c2ccccc2)cc1
viability, T/C (compound 0.0316 µM): 98% and 103% and 91.6%
viability, T/C (compound 0.1 µM): 107% and 100% and 93.8%
viability, T/C (compound 0.316 µM): 101% and 88.4% and 88.6%
viability, T/C (compound 1 µM): 100% and 110% and 97.2%
viability, T/C (compound 3.16 µM): 112% and 118% and 108%
viability, T/C (compound 10 µM): 117% and 97.2% and 76%
IC50 (curve of compound): > 10 µM

O=C(c1cc(Cc2n[nH]c(=O)c3ccccc23)ccc1F)N1CCN(C(=O)C2CC2)CC1
viability, T/C (compound 0.0316 µM): 103% and 105% (2×)
viability, T/C (compound 0.1 µM): 97.6% and 102% and 98%
viability, T/C (compound 0.316 µM): 97.1% and 109% and 95.8%
viability, T/C (compound 1 µM): 94% and 107% and 93.8%
viability, T/C (compound 3.16 µM): 93.9% and 95.7% and 87.6%
viability, T/C (compound 10 µM): 78.1% and 78.9% and 82.2%
IC50 (curve of compound): > 10 µM

O=c1[nH]cc(F)c(=O)[nH]1
viability, T/C (compound 0.0316 µM): 98.3% and 96.3% and 103%
viability, T/C (compound 0.1 µM): 102% and 95.3% and 108%
viability, T/C (compound 0.316 µM): 103% and 89.2% and 105%
viability, T/C (compound 1 µM): 87.9% and 98.7% and 102%
viability, T/C (compound 3.16 µM): 87.6% and 89.9% and 91.7%
viability, T/C (compound 10 µM): 75% and 75.8% and 71.4%
IC50 (curve of compound): > 10 µM
